Source: patent US8563542B2 (Cyclacel Limited, priority 2007, dated 2013)
Where a name gives a salt, the structure may show the parent alone.

Each compound was assayed against PLK1 (Homo sapiens, UniProt P53350) (assay: PLK1 protein kinase assay (CDC25C phosphorylation, [γ-32P]-ATP)). Settings: not given.
Chain of PLK1 (P53350 whole entry): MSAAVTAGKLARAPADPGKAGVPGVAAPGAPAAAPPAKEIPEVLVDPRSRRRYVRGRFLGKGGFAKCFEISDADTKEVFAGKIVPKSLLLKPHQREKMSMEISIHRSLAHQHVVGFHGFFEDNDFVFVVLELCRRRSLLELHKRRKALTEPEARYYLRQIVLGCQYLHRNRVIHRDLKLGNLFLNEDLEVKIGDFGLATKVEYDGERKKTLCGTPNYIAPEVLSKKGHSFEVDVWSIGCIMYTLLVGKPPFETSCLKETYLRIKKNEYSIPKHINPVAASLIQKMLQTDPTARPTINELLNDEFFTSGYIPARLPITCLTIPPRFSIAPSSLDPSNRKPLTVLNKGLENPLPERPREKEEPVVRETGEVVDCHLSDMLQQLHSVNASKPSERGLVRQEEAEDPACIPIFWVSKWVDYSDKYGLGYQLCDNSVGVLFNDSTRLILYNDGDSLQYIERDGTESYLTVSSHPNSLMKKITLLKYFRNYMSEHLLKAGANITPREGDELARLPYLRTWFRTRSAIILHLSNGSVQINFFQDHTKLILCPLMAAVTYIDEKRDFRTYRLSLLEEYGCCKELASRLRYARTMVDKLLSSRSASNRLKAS
Type: biochemical
For `COc1cc(C(=O)NC2CCN(C)CC2)ccc1Nc1ncc2c(n1)N(C1CCCC1)CC(C)C(=O)N2C` (stereo not drawn) [compound 20, 4-(9-Cyclopentyl-5,7-dimethyl-6-oxo-6,7,8,9-tetrahydro-5H-pyrimido[4,5-b][1,4]diazepin-2-ylamino)-3-methoxy-N-(1-methyl-piperidin-4-yl)-benzamide], the IC50 was < 100 nM.
For `COc1cc(C(=O)NC2CCN(C)CC2)ccc1Nc1ncc2c(n1)N(C1CCCC1)C(C)CC(=O)N2C` (stereo not drawn) [compound 33, 4-(9-Cyclopentyl-5,8-dimethyl-6-oxo-6,7,8,9-tetrahydro-5H-pyrimido[4,5-b][1,4]diazepin-2-ylamino)-3-methoxy-N-(1-methyl-piperidin-4-yl)-benzamide], the IC50 was < 1000 nM.

Same assay, conditions: Table 1; read-out: PLK1 IC50
With `COc1cc(C(=O)O)ccc1Nc1ncc2c(n1)N(C1CCCC1)C(C)CC(=O)N2` (stereo not drawn) [compound 3, 4-(9-Cyclopentyl-8-methyl-6-oxo-6,7,8,9-tetrahydro-5H-pyrimido[4,5-b][1,4]diazepin-2-ylamino)-3-methoxy-benzoic acid] the IC50 was < 10000 nM.
`COc1cc(C(=O)O)ccc1Nc1ncc2c(n1)N(C1CCCC1)C(C)CC(=O)N2C` (stereo not drawn) [compound 4, 4-(9-Cyclopentyl-5,8-dimethyl-6-oxo-6,7,8,9-tetrahydro-5H-pyrimido[4,5-b][1,4]diazepin-2-ylamino)-3-methoxy-benzoic acid] was tested, and the IC50 was < 10000 nM.
`COc1cc(C(=O)O)ccc1Nc1ncc2c(n1)N(C1CCCCC1)C(C)CC(=O)N2` (stereo not drawn) [compound 5, 4-(9-Cyclohexyl-8-methyl-6-oxo-6,7,8,9-tetrahydro-5H-pyrimido[4,5-b][1,4]diazepin-2-ylamino)-3-methoxy-benzoic acid] was tested, and the IC50 was < 10000 nM.
In the case of `O=C1CCN(C2CCCCC2)c2nc(Nc3ccc(O)cc3)ncc2N1` [compound 10, 9-Cyclohexyl-2-(4-hydroxy-phenylamino)-5,7,8,9-tetrahydro-pyrimido[4,5-b][1,4]diazepin-6-one], the IC50 is reported as < 10000 nM.
With `CC1CN(C2CCCC2)c2nc(Nc3ccc(O)cc3)ncc2NC1=O` (stereo not drawn) [compound 11, 9-Cyclopentyl-2-(4-hydroxy-phenylamino)-7-methyl-5,7,8,9-tetrahydro-pyrimido[4,5-b][1,4]diazepin-6-one] the IC50 was < 10000 nM.
`CC1CC(=O)N(C)c2cnc(Nc3ccc(O)cc3)nc2N1C1CCCC1` (stereo not drawn) [compound 13, 9-Cyclopentyl-2-(4-hydroxy-phenylamino)-5,8-dimethyl-5,7,8,9-tetrahydro-pyrimido[4,5-b][1,4]diazepin-6-one] was tested, and the IC50 was < 10000 nM.
For `COc1cc(C(=O)NC2CCN(C)CC2)ccc1Nc1ncc2c(n1)N(C1CCCC1)CC(C)C(=O)N2` (stereo not drawn) [compound 17, 4-(9-Cyclopentyl-7-methyl-6-oxo-6,7,8,9-tetrahydro-5H-pyrimido[4,5-b][1,4]diazepin-2-ylamino)-3-methoxy-N-(1-methyl-piperidin-4-yl)-benzamide], the IC50 was < 10000 nM.
With `COc1cc(C(=O)NC2CCN(C)CC2)ccc1Nc1ncc2c(n1)N(C1CCCC1)C(C(C)C)CC(=O)N2` (stereo not drawn) [compound 19, 4-(9-Cyclopentyl-8-isopropyl-6-oxo-6,7,8,9-tetrahydro-5H-pyrimido[4,5-b][1,4]diazepin-2-ylamino)-3-methoxy-N-(1-methyl-piperidin-4-yl)-benzamide] the IC50 was < 10000 nM.
For `COc1cc(C(=O)NC2CCN(C)CC2)ccc1Nc1ncc2c(n1)N(C1CCCC1)C(C(C)C)CC(=O)N2C` (stereo not drawn) [compound 23, 4-(9-Cyclopentyl-8-isopropyl-5-methyl-6-oxo-6,7,8,9-tetrahydro-5H-pyrimido[4,5-b][1,4]diazepin-2-ylamino)-3-methoxy-N-(1-methyl-piperidin-4-yl)-benzamide], the IC50 was < 10000 nM.
For `CCC(CC)N1CCC(=O)N(C)c2cnc(Nc3ccc(C(=O)NC4CCN(C)CC4)cc3OC)nc21` [compound 24, 4-[9-(1-Ethyl-propyl)-5-methyl-6-oxo-6,7,8,9-tetrahydro-5H-pyrimido[4,5-b][1,4]diazepin-2-ylamino]-3-methoxy-N-(1-methyl-piperidin-4-yl)-benzamide], the IC50 was < 10000 nM.
In the case of `COc1cc(C(=O)NC2CCN(C)CC2)ccc1Nc1ncc2c(n1)N(C1CCOCC1)CCC(=O)N2C` [compound 26, 3-Methoxy-4-[5-methyl-6-oxo-9-(tetrahydro-pyran-4-yl)-6,7,8,9-tetrahydro-5H-pyrimido[4,5-b][1,4]diazepin-2-ylamino]-N-(1-methyl-piperidin-4-yl)-benzamide], the IC50 is reported as < 1000 nM.
In the case of `CCN1C(=O)C(C)CN(C2CCCC2)c2nc(Nc3ccc(C(=O)NC4CCN(C)CC4)cc3OC)ncc21` (stereo not drawn) [compound 28, 4-(9-Cyclopentyl-5-ethyl-7-methyl-6-oxo-6,7,8,9-tetrahydro-5H-pyrimido[4,5-b][1,4]diazepin-2-ylamino)-3-methoxy-N-(1-methyl-piperidin-4-yl)-benzamide], the IC50 is reported as < 1000 nM.
With `COc1cc(C(=O)NC2CCN(C)CC2)ccc1Nc1ncc2c(n1)N(Cc1ccccc1)CCC(=O)N2C` [compound 29, 4-(9-Benzyl-5-methyl-6-oxo-6,7,8,9-tetrahydro-5H-pyrimido[4,5-b][1,4]diazepin-2-ylamino)-3-methoxy-N-(1-methyl-piperidin-4-yl)-benzamide] the IC50 was < 10000 nM.
For `COc1cc(C(=O)NC2CCN(C)CC2)ccc1Nc1ncc2c(n1)N(c1ccccc1)CCC(=O)N2C` [compound 30, 3-Methoxy-4-(5-methyl-6-oxo-9-phenyl-6,7,8,9-tetrahydro-5H-pyrimido[4,5-b][1,4]diazepin-2-ylamino)-N-(1-methyl-piperidin-4-yl)-benzamide], the IC50 was < 1000 nM.
For `COc1cc(C(=O)NC2CCN(C)CC2)ccc1Nc1ncc2c(n1)N(C1CCCC1)CC1(CC1)C(=O)N2C` [compound 31], the IC50 was < 100 nM.
`COc1cc(C(=O)NC2CCN(C)CC2)ccc1Nc1ncc2c(n1)N(C1CCCC1)C(C)CC(=O)N2` (stereo not drawn) [compound 34, 4-(9-Cyclopentyl-8-methyl-6-oxo-6,7,8,9-tetrahydro-5H-pyrimido[4,5-b][1,4]diazepin-2-ylamino)-3-methoxy-N-(1-methyl-piperidin-4-yl)-benzamide] was tested, and the IC50 was < 1000 nM.
For `COc1cc(C(=O)NC2CCN(C)CC2)ccc1Nc1ncc2c(n1)N(C1CCCCC1)C(C)CC(=O)N2` (stereo not drawn) [compound 35, 4-(9-Cyclohexyl-8-methyl-6-oxo-6,7,8,9-tetrahydro-5H-pyrimido[4,5-b][1,4]diazepin-2-ylamino)-3-methoxy-N-(1-methyl-piperidin-4-yl)-benzamide], the IC50 was < 1000 nM.
For `COc1cc(C(=O)NC2CCN(C)CC2)ccc1Nc1ncc2c(n1)N(C1CCCC1)CCC(=O)N2` [compound 36, 4-(9-Cyclopentyl-6-oxo-6,7,8,9-tetrahydro-5H-pyrimido[4,5-b][1,4]diazepin-2-ylamino)-3-methoxy-N-(1-methyl-piperidin-4-yl)-benzamide], the IC50 was < 10000 nM.
For `CC1CC(=O)Nc2cnc(Nc3ccc(C(=O)NC4CCN(C)CC4)cc3)nc2N1C1CCCC1` (stereo not drawn) [compound 38, 4-(9-Cyclopentyl-8-methyl-6-oxo-6,7,8,9-tetrahydro-5H-pyrimido[4,5-b][1,4]diazepin-2-ylamino)-N-(1-methyl-piperidin-4-yl)-benzamide], the IC50 was < 1000 nM.

Same assay, conditions: Table 3; read-out: PLK1 IC50
For `COc1cc(C(=O)N[C@H]2CC[C@@H](N3CCN(Cc4ccccc4)CC3)CC2)ccc1Nc1ncc2c(n1)N(C1CCCC1)CC1(CC1)C(=O)N2C` [Compound 387, N-((cis)-4-(4-benzylpiperazin-1-yl)cyclohexyl)-4-(9′-cyclopentyl-5′-methyl-6′-oxo-5′,6′,8′,9′-tetrahydrospiro[cyclopropane-1,7′-pyrimido[4,5-b][1,4]diazepine]-2′-ylamino)-3-methoxybenzamide], the IC50 was 100 to 1000 nM.
In the case of `COc1cc(C(=O)N[C@H]2CC[C@H](N3CCOCC3)CC2)ccc1Nc1ncc2c(n1)N(C1CCCC1)CC(C)(C)C(=O)N2C` [Compound 388, 4-(9-cyclopentyl-5,7,7-trimethyl-6-oxo-6,7,8,9-tetrahydro-5H-pyrimido[4,5-b][1,4]diazepin-2-ylamino)-3-methoxy-N-((trans)-4-morpholinocyclohexyl)benzamide], the IC50 is reported as < 100 nM.
With `COc1cc(C(=O)N[C@H]2CC[C@@H](N3CCOCC3)CC2)ccc1Nc1ncc2c(n1)N(C1CCCC1)CC(C)(C)C(=O)N2C` [Compound 389, 4-(9-cyclopentyl-5,7,7-trimethyl-6-oxo-6,7,8,9-tetrahydro-5H-pyrimido[4,5-b][1,4]diazepin-2-ylamino)-3-methoxy-N-((cis)-4-morpholinocyclohexyl)benzamide] the IC50 was 100 to 1000 nM.
With `COc1cc(C(=O)N[C@H]2CC[C@H](N3CCOCC3)CC2)ccc1Nc1ncc2c(n1)N(C1CCCC1)CC1(CC1)C(=O)N2C` [Compound 390, 4-(9′-cyclopentyl-5′-methyl-6′-oxo-5′,6′,8′,9′-tetrahydrospiro[cyclopropane-1,7′-pyrimido[4,5-b][1,4]diazepine]-2′-ylamino)-3-methoxy-N-((trans)-4-morpholinocyclohexyl)benzamide] the IC50 was < 100 nM.
`COc1cc(C(=O)N[C@H]2CC[C@@H](N3CCOCC3)CC2)ccc1Nc1ncc2c(n1)N(C1CCCC1)CC1(CC1)C(=O)N2C` [Compound 391, 4-(9′-cyclopentyl-5′-methyl-6′-oxo-5′,6′,8′,9′-tetrahydrospiro[cyclopropane-1,7′-pyrimido[4,5-b][1,4]diazepine]-2′-ylamino)-3-methoxy-N-((cis)-4-morpholinocyclohexyl)benzamide] was tested, and the IC50 was < 100 nM.

Same assay, conditions: Table 4; read-out: PLK1 IC50
`COc1cc(C(=O)NC2CCN(C)CC2)ccc1Nc1ncc2c(n1)N(C1CCCC1)CC1(CCC1)C(=O)N2C` [WO 2007/095188 [I-64], reference compound] was tested, and the IC50 was < 100 nM.
With `COc1cc(C(=O)NC2CCN(C)CC2)ccc1Nc1ncc2c(n1)N(C1CCCC1)CC1(CC1)C(=O)N2C` [WO 2007/095188 [I-76], reference compound] the IC50 was < 100 nM.

Same assay, conditions: Table 6
`COc1cc(C(=O)NN2CCCC2)ccc1Nc1ncc2c(n1)N(C1CCCC1)CC1(CC1)C(=O)N2C` [Example [I-253] of WO 07/095188, reference compound] was tested, and the Ki was < 10 nM.
For `COc1cc(C(=O)NN2CCN(C)CC2)ccc1Nc1ncc2c(n1)N(C1CCCC1)CC1(CC1)C(=O)N2C` [[254]•HCl, 4-(9′-cyclopentyl-5′-methyl-6′-oxo-5′,6′,8′,9′-tetrahydrospiro[cyclopropane-1,7′-pyrimido[4,5-b][1,4]diazepine]-2′-ylamino)-3-methoxy-N-(4-methylpiperazin-1-yl)benzamide.HCl], the Ki was < 10 nM.
